According to patent publication US6846803B1, “Antagonists specific for the corticotropin-releasing factor receptor type 2 (CRFR2)” (priority 1998, dated 2005):
Like-named read-outs stand apart in the source and are kept apart here. Marks after values point to notes of the source that are not given here. Positions of bridges follow the written chain, without caps; N, C: chain ends. Non-standard residues stand in square brackets, D forms with d. Residues, ends and D or L forms follow the SMILES beside them. No end group written: not given here. *: point of attachment. X1 = O=C(c1ccc(C2(C(F)(F)F)N=N2)cc1)*

T1: rCRFR1 (Rattus norvegicus, UniProt P35353)
T1 construct: expressed in transfected cells; host or cells: HEK 293 cells, stably transfected (HEK-rCRFR1)
T1 sequence (P35353 24-415): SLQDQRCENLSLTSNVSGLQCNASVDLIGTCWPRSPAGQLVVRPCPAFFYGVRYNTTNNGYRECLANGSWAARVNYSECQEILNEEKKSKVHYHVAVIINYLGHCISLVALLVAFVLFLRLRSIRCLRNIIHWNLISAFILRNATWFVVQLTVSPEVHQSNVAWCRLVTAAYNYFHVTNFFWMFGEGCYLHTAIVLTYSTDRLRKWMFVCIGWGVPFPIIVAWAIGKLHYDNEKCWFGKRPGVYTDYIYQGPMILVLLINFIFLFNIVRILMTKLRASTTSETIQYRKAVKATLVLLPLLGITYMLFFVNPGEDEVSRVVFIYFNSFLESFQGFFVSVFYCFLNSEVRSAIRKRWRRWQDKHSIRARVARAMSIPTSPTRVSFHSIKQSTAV

T2: rat CRF receptor, type 1 (rCRFR1) (rat, UniProt P35353 24-415)
T2 sequence (looked up): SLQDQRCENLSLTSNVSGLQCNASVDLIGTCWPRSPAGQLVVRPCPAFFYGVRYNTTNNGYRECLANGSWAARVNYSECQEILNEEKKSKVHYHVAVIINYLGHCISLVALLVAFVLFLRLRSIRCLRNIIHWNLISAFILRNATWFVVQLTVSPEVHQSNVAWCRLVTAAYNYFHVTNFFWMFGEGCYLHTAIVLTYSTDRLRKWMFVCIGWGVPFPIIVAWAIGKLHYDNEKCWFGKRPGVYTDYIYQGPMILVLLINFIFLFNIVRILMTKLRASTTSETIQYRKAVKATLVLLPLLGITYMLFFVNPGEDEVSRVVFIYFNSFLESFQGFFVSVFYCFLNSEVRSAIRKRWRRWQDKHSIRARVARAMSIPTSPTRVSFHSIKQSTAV

B1: antisauvagine-30, [DPhe^11, His^12]Svg(11-40) (peptide)
peptide: [dF]HLLRKMIEIEKQEKEKQQAANNRLLLDTI
modifications: not fully specified (C-terminus)
B2: [DPhe^11]rUcn(11-40) (peptide)
peptide: [dF]HLLRTILELARTQSQRERAEQNRIIFDSV
modifications: ends and bridges not checked
B3: [DLeu^11, Glu^12]rUcn(11-40) (peptide)
peptide: [dL]ELLRTILELARTQSQRERAEQNRIIFDSV
modifications: ends and bridges not checked
B4: cyclo(29-32)[DPhe^11, Glu^29, Lys^32]rUcn(11-40) (peptide)
peptide: [dF]HLLRTILELARTQSQREEAEKNRIIFDSV
modifications: lactam 19-22; ends not checked
B5: [DPhe^11, Glu^12]rUcn(11-40) (peptide)
peptide: [dF]ELLRTILELARTQSQRERAEQNRIIFDSV
modifications: ends and bridges not checked
B6: [DPhe^12]oCRF(12-41) (peptide)
peptide: [dF]HLLREVLEMTKADQLAQQAHSNRKLLDIA
modifications: ends and bridges not checked

Key:
rCRFR1 = target: T1, rCRFR1; assay: cAMP stimulation / inhibition of oCRF-stimulated cAMP production in HEK-rCRFR1 cells; assay type: cell-based; settings: for HEK-rCRFR1 cells rel. pot. (relative potency): Table 4, oCRF alone = 1.00; for HEK-rCRFR1 cells rel. pot. (relative potency) / rCRFR1 relative in vitro potency: 1 μM antagonist, cAMP production stimulated by 1 nM oCRF; for rCRFR1 relative in vitro potency: Table 2, oCRF alone = 1.00 (lower = stronger inhibition)
Protocol: (§1) HEK-rCRFR1 cells or HEK-mCRFR2β cells were incubated with different CRF agonists in the presence or absence of 1 μM or 10 nM antagonist, or CRF antagonist (c=1 μM) alone. After removal of the medium, cells were lyzed with aqueous 6% trichloroacetic acid (5 min, 100° C.) (Rühmann, A., A. K. E. Köpke, F. M. Dautzenberg, and J. Spiess, Proc. Natl. Acad. Sci. USA 93: 10609-10613, 1996). The cell lysates were stored at −70° C. until assayed with a RIA kit (Amersham, Little Chalfont). […] Statistical significance was determined across groups with ANOVA, and significant differences between groups were determined by post hoc comparison using the Dunn test.
(§2) Intrinsic activities were measured at peptide concentrations generating maximal formation of cAMP in HEK-rCRFR1 or HEK-mCRFR2β cells.

mCRFR2β [1] = target: T3, mCRFR2β (Mus musculus, UniProt Q60748); assay: cAMP stimulation / inhibition of Svg-stimulated cAMP production in HEK-mCRFR2β cells; assay type: cell-based; settings: for HEK-mCRFR2β cells rel. pot. (relative potency): Table 4, Svg alone = 1.00; for HEK-mCRFR2β cells rel. pot. (relative potency) / mCRFR2β relative in vitro potency: 10 nM antagonist, cAMP production stimulated by 1 nM Svg; for mCRFR2β relative in vitro potency: Table 2, Svg alone = 1.00 (lower = stronger inhibition)
T3 construct: expressed in transfected cells; host or cells: HEK 293 cells, stably transfected (HEK-mCRFR2β); membrane homogenates
Protocol: as §1, §2
Target sequence in this assay (Q60748 1-431 isoform Q60748-2): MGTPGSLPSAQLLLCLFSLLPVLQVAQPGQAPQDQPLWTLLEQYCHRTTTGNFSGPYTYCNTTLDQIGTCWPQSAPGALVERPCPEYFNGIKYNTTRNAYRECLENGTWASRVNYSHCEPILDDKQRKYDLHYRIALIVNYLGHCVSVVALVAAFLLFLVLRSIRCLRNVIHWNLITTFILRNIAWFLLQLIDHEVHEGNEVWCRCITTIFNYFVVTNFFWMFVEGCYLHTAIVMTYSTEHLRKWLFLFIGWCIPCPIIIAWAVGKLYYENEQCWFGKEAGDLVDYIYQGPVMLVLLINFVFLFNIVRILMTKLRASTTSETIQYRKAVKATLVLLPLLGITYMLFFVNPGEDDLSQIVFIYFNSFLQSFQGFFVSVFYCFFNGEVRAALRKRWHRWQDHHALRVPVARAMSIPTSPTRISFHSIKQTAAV

mCRFR2β [2] = target: T3, mCRFR2β; assay: Displacement of [^125I-Tyr^0]Svg from membranes of HEK-mCRFR2β cells; assay type: binding; settings: for Selectivity: Kd(rCRFR1)(peptide)/Kd(rCRFR1)(astressin) × Kd(mCRFR2β)(astressin)/Kd(mCRFR2β)(peptide)
Protocol: Binding assays were performed in 96-well MultiScreen plates (Millipore, Eschborn, Germany) with GF/B filters (pore size 1.0 μm). […] After incubation (60 min, 23° C.), membrane suspension was aspirated through the plate, followed by two washes with assay buffer (0.2 ml, 23°). Radioactivity of the punched filters was measured with a 1470 WIZARD automatic gamma counter (Berthold, Hannover). […] Statistical analysis was performed with ANOVA, and significant differences between groups were determined by post hoc comparison using the Dunn test.
Membrane homogenates of human embryonic kidney (HEK) 293 cells stably transfected with cDNA coding for rat CRF receptor, type 1 (rCRFR1) or mouse CRF receptor, type 2β (mCRFR2β) were prepared according to standard protocols (see, e.g., Sambrook et al., Molecular Cloning: A Laboratory Manual, 2nd. Edition, Cold Spring Habor Laboratory Press, Cold Spring Habor, N.Y., 1989; Ausubel et al., Current Protocols in Molecular Biology, Green Publishing Associates and Wiley Interscience, NY, 1989).

[3] = target: T2, rat CRF receptor, type 1 (rCRFR1); assay: cell-based or functional assay
[4] = target: mouse CRF receptor, type 2β (mCRFR2β) (mouse) (UniProt Q60748); assay: Kd(rCRFR1)/Kd(mCRFR2β) of the peptide normalised to that of astressin; radioligand displacement
[5] = read-out: HEK-rCRFR1 cells rel. IA (relative intrinsic activity)
[6] = read-out: HEK-mCRFR2β cells rel. IA (relative intrinsic activity)

Molecule | rCRFR1 relative in vitro potency (rCRFR1) | mCRFR2β relative in vitro potency (mCRFR2β [1]) | Selectivity (mCRFR2β [2]; Table 1) | % IA (intrinsic activity), cAMP production, HEK-rCRFR1 cells [3] | further results
CC[C@H](C)[C@H](NC(=O)[C@@H](NC(=O)[C@H](CC(=O)O)NC(=O)[C@H](CC(C)C)NC(=O)[C@H](CC(C)C)NC(=O)[C@H](CC(C)C)NC(=O)[C@H](CCCNC(=N)N)NC(=O)[C@H](CC(N)=O)NC(=O)[C@H](CC(N)=O)NC(=O)[C@H](C)NC(=O)[C@H](C)NC(=O)[C@H](CCC(N)=O)NC(=O)[C@H](CCC(N)=O)NC(=O)[C@H](CCCCN)NC(=O)[C@H](CCC(=O)O)NC(=O)[C@H](CCCCN)NC(=O)[C@H](CCC(=O)O)NC(=O)[C@H](CCC(N)=O)NC(=O)[C@H](CCCCN)NC(=O)[C@H](CCC(=O)O)NC(=O)[C@@H](NC(=O)[C@H](CCC(=O)O)NC(=O)[C@@H](NC(=O)[C@H](CCSC)NC(=O)[C@H](CCCCN)NC(=O)[C@H](CCCNC(=N)N)NC(=O)[C@H](CC(C)C)NC(=O)[C@H](CC(C)C)NC(=O)[C@H](Cc1c[nH]cn1)NC(=O)[C@@H](N)Cc1ccc(O)cc1)[C@@H](C)CC)[C@@H](C)CC)[C@@H](C)O)C(N)=O [compound 18, [Tyr^11, His^12]Svg(11-40)] (H-YHLLRKMIEIEKQEKEKQQAANNRLLLDTI-NH2; N-terminus assumed) |  |  |  |  | HEK-rCRFR1 cells rel. pot. (relative potency) (rCRFR1): 0.79 ± 0.07; Emax (rCRFR1; [5]): 3 ± 1%; HEK-mCRFR2β cells rel. pot. (relative potency) (mCRFR2β [1]): 0.37 ± 0.05; Emax (mCRFR2β [1]; [6]): 0.8 ± 0.2%; Kd (mCRFR2β [2]): 4.9 ± 1.8 nM; Selectivity (mCRFR2β [2]; Table 3): 31.64
[DPhe^11]rUcn(11-40) [compound 7] | 0.18 ± 0.03^g | 0.57 ± 0.06 | 4.45 |  | 
[DPhe^11, Glu^12]rUcn(11-40) [compound 8] | 0.42 ± 0.11 | 0.61 ± 0.02 | 5.04 |  | 
[DPhe^12, Nle^21,38]h/rCRF(12-41) [compound 5, reference compound] | 0.33 ± 0.08^h,i | 0.87 ± 0.08^i | 1.84 |  | 
CC[C@H](C)[C@H](NC(=O)[C@@H](NC(=O)[C@H](CC(=O)O)NC(=O)[C@H](CC(C)C)NC(=O)[C@H](CC(C)C)NC(=O)[C@H](CC(C)C)NC(=O)[C@H](CCCNC(=N)N)NC(=O)[C@H](CC(N)=O)NC(=O)[C@H](CC(N)=O)NC(=O)[C@H](C)NC(=O)[C@H](C)NC(=O)[C@H](CCC(N)=O)NC(=O)[C@H](CCC(N)=O)NC(=O)[C@H](CCCCN)NC(=O)[C@H](CCC(=O)O)NC(=O)[C@H](CCCCN)NC(=O)[C@H](CCC(=O)O)NC(=O)[C@H](CCC(N)=O)NC(=O)[C@H](CCCCN)NC(=O)[C@H](CCC(=O)O)NC(=O)[C@@H](NC(=O)[C@H](CCC(=O)O)NC(=O)[C@@H](NC(=O)[C@H](CCSC)NC(=O)[C@H](CCCCN)NC(=O)[C@H](CCCNC(=N)N)NC(=O)[C@H](CC(C)C)NC(=O)[C@H](CC(C)C)NC(=O)[C@H](Cc1c[nH]cn1)NC(=O)c1ccc(C2(C(F)(F)F)N=N2)cc1)[C@@H](C)CC)[C@@H](C)CC)[C@@H](C)O)C(N)=O [compound 17, ATB-[His^12]Svg(12-40)] (X1-HLLRKMIEIEKQEKEKQQAANNRLLLDTI-NH2) |  |  |  |  | HEK-rCRFR1 cells rel. pot. (relative potency) (rCRFR1): 0.54 ± 0.06; Emax (rCRFR1; [5]): 15 ± 1%; HEK-mCRFR2β cells rel. pot. (relative potency) (mCRFR2β [1]): 0.48 ± 0.04; Emax (mCRFR2β [1]; [6]): 0.7 ± 0.2%; Kd (mCRFR2β [2]): 3.1 ± 0.2 nM; Selectivity (mCRFR2β [2]; Table 3): 32.26
[DLeu^11, Glu^12]rUcn(11-40) [compound 9] | 0.56 ± 0.05 | 0.81 ± 0.06 | 2.29 |  | 
cyclo(29-32)[DPhe^11, Glu^29, Lys^32]rUcn(11-40) [compound 10] | 0.78 ± 0.10 | 0.89 ± 0.01 | 1.48 |  | 
CC[C@H](C)[C@H](NC(=O)[C@@H](NC(=O)[C@H](CC(=O)O)NC(=O)[C@H](CC(C)C)NC(=O)[C@H](CC(C)C)NC(=O)[C@H](CC(C)C)NC(=O)[C@H](CCCNC(=N)N)NC(=O)[C@H](CC(N)=O)NC(=O)[C@H](CC(N)=O)NC(=O)[C@H](C)NC(=O)[C@H](C)NC(=O)[C@H](CCC(N)=O)NC(=O)[C@H](CCC(N)=O)NC(=O)[C@H](CCCCN)NC(=O)[C@H](CCC(=O)O)NC(=O)[C@H](CCCCN)NC(=O)[C@H](CCC(=O)O)NC(=O)[C@H](CCC(N)=O)NC(=O)[C@H](CCCCN)NC(=O)[C@H](CCC(=O)O)NC(=O)[C@@H](NC(=O)[C@H](CCC(=O)O)NC(=O)[C@@H](NC(=O)[C@H](CCSC)NC(=O)[C@H](CCCCN)NC(=O)[C@H](CCCNC(=N)N)NC(=O)[C@H](CC(C)C)NC(=O)[C@H](CC(C)C)NC(=O)[C@H](Cc1c[nH]cn1)NC(=O)[C@H](N)Cc1ccccc1)[C@@H](C)CC)[C@@H](C)CC)[C@@H](C)O)C(N)=O [compound 11, [DPhe^11, His^12]Svg(11-40)] |  |  |  |  | Emax (rCRFR1; [5]): 4 ± 1%; Emax (rCRFR1; read-out: rCRFR1 % IA (intrinsic activity)): 4 ± 1%; Emax (mCRFR2β [1]; [6]): 0.4 ± 0.1%; Emax (mCRFR2β [1]; read-out: mCRFR2β % IA (intrinsic activity)): 0.4 ± 0.1%; Kd (mCRFR2β [2]): 1.4 ± 0.4 nM
B1 |  |  |  | 0.04 relative, oCRF = 1.00 | Selectivity [4]: 77
B2 |  |  |  | 0.07 relative, oCRF = 1.00 | 
B3 |  |  |  | 0.23 relative, oCRF = 1.00 | 
B4 |  |  |  | 0.1 relative, oCRF = 1.00 | 
B5 |  |  |  | 0.22 relative, oCRF = 1.00 | 
B6 |  |  |  | 0.05 relative, oCRF = 1.00 | 
